Results as given in patent US20240174728A1, “A USE OF A POLYPEPTIDE COMPOUND IN THE PREPARATION OF DRUGS FOR PREVENTING OR TREATING INFLAMMATORY BOWEL DISEASES AND RELATED INTESTINAL FIBROSIS” (Shenzhen Turier Biotech Co., Ltd., priority 2021, published 2024).
Starred links: 1 amine or outer side, 2 acyl side, 3 side chain; linkers in the order of their positions; H or OH if unused. Non-standard residues stand in square brackets, D forms with d. Groups on a side chain read outwards from the residue. Primed or numbered codes have the meaning given here. No end group written: not given here. *: point of attachment. C20 diacid = O=C(O)CCCCCCCCCCCCCCCCCCC(=O)*; Arachidoyl = CCCCCCCCCCCCCCCCCCCC(=O)*; γGlu = O=C(O)[C@H](CCC(=O)[*:2])N[*:1]; Iva = CC[C@](C)(N)C(=O)O; PEG2′ = not defined here; Aib = CC(C)(N)C(=O)O

Legend:
[1] = tested on: DSS induced acute intestinal fibrosis model of mouse; test: DSS induced acute intestinal fibrosis model of mouse (Example 2); assay type: in vivo, Balb/c mice; conditions: 3% DSS Day 1-7, compared with model group; for content of serum IL-6 (FIG. 7) / content of serum MMP-12 (FIG. 7) / collagenous fiber of colon tissues, Masson stained slice (FIG. 4A) / colon Ly-6g+ cells (neutrophile granulocyte infiltration), immunohistochemical staining (FIG. 6) / colon mucous layer α-SMA protein expression, immunohistochemical staining (FIG. 5): 120 μg/kg s.c. once/day; for content of serum IL-6 (FIG. 7) / content of serum MMP-12 (FIG. 7): 9th day serum, ##P≤0.01; for colon tissue morphology, HE stained slice (FIG. 3) / blue staining area of colon tissues, area ratio of blue collagen fibers to colon tissue in Masson staining (FIG. 4B): polypeptide 120 μg/kg s.c. or 6-TG 2 mg/kg p.o. once/day; for blue staining area of colon tissues, area ratio of blue collagen fibers to colon tissue in Masson staining (FIG. 4B): #P≤0.05
Source text: The DSS in this example is purchased from MP Biomedicals (CAS No.: 9011-18-1), and the positive control compound 6-thioguanine (6-TG) is a compound based on prior art and is purchased from Shanghai Aladdin Biochemical Technology Co., Ltd. (CAS No.: 154-42-7).
(§1) After 7 days of adaptive feeding, 114 Balb/c mice of 6-8 weeks age (purchased from Guangdong Medical Laboratory Animal Center, with weight approx. 16-20 g) are subjected to the experiment. Then randomly put the mice into 19 groups, with 6 mice in each group. The groups are normal group, model group, 6-TG group and polypeptide compound groups 1-16.
Model the 19 groups of mice and administer the drug to them for 8 days. In the 8 days, the normal group is given normal drinking water and is given subcutaneous injection of PBS once every day. From Day 1 to Day 7, the model group drinks 3% DSS and is given subcutaneous injection of PBS once every day. On Day 8, 3% DSS is replaced with normal drinking water and subcutaneous injection of PBS is given once. From Day 1 to Day 7, the 6-TG group drinks 3% DSS and is given 2 mg/kg 6-TG by the means of gavage once every day. On Day 8, 3% DSS is replaced with normal drinking water and 2 mg/kg 6-TG is given by the means of gavage once. From Day 1 to Day 7, the polypeptide compound groups 1-16 drink 3% DSS and are given subcutaneous injection of 120 μg/kg polypeptide compounds 1-16 once every day. On Day 8, 3% DSS is replaced with normal drinking water and subcutaneous injection of 120 μg/kg polypeptide compounds 1-16 is given once.
In the drug administration period, the randomly selected polypeptide compound groups 3, 8, 11, 12, 13 and 14 and the normal group, model group and 6-TG group are used for testing, and the body weight, feces consistency and feces OB of the mice are recorded every day. The GraphPad Prism 8.3.0 software is used to plot the data into a diagram. Feces OB is measured by the benzidine method.
On the 9th day, all mice are killed. The serums and colon tissues of the mice are collected. The colon and cecum of the mice are removed together. The colon length is measured. The GraphPad Prism 8.3.0 software is used to plot the data into a diagram.
The serums of the mice from the randomly selected polypeptide compound groups 3, 8, 11, 12, 13 and 14 of the present invention and the normal group and model group are used for cytokine test.
(§2) The colons of the mice from the randomly selected polypeptide compound groups 3, 8, 11, 12, 13 and 14 and the normal group, model group and 6-TG group in the present invention are taken. Approx. 5 mm of intestinal segment is taken from the distal end of each colon and is fixed in 10% formalin. The specimens are fixed, dehydrated, wrapped in paraffin and sliced (5 μm). Then tissue HE staining, Masson staining, α-SMA α-SMA protein immunohistochemical staining and Ly-6g protein immunohistochemical staining are completed.

[2] = tested on: DSS induced chronic intestinal fibrosis model of mouse; test: DSS induced chronic intestinal fibrosis model of mouse (Example 3, three cycles); assay type: in vivo, Balb/c mice; conditions: 2% DSS 5 days then water 2 weeks, 3 cycles, 120 μg/kg s.c. once/day, compared with model group; for blue staining area of colon tissues, area ratio of blue collagen fibers to colon tissue in Masson staining (FIG. 11B): #P≤0.05, ##P≤0.01; for content of serum IL-6 (FIG. 13) / content of serum MMP-8 (FIG. 13): serum at end of three cycles
Source text: as §1
In the whole process, the normal group is given normal drinking water and is given subcutaneous injection PBS once every day. The model group is first given 2% DSS for 5 days and then given normal drinking water for 2 weeks. This is 1 cycle. The cycle is done 3 times. Subcutaneous injection of PBS is given once every day. The 6-TG group is first given 2% DSS for 5 days and then given normal drinking water for 2 weeks. This is 1 cycle. The cycle is done 3 times. 2 mg/kg 6-TG is given by the means of gavage once every day. The polypeptide compound groups 1-16 are first given 2% DSS for 5 days and then given normal drinking water for 2 weeks. This is 1 cycle. The cycle is done 3 times. Subcutaneous injection of 120 μg/kg polypeptide compounds 1-16 is given once every day.
During the administration period, the polypeptide compound groups 3, 8, 11, 12, 13 and 14 and the normal group, model group and 6-TG group are randomly selected, and the body weight, feces consistency and feces OB of the mice are recorded every day. The GraphPad Prism 8.3.0 software is used to plot the data into a diagram.
After completion of the 3rd cycle, the mice are dissected. The serums and colon tissues of the mice are collected. The colon and cecum are removed together. The colon length is measured. The GraphPad Prism 8.3.0 software is used to plot the data into a diagram.
The serums of the mice from the randomly selected polypeptide compound groups 3, 8, 11, 12, 13 and 14 and the normal group and model group of the present invention are used for cytokine test.
as §2, with “normal” for “normal group, model”, “model” for “6-TG”, “Masson” for “Masson staining, α-SMA α-SMA protein immunohistochemical”, “Fibronectin” for “Ly-6g”

Substance: His-(D-Ser)-Gln-Gly-Thr-Phe-Thr-Ser-Asp-Lys(PEG2-PEG2-γGlu-CO(CH2)18CO2H)-Ser-Lys-Tyr-Leu-Asp-Glu-Arg-Ala-Ala-Gln-Asp-Phe-Iva-Gln-Trp-Leu-Leu-Asp-Gly-Gly-Pro-Ser-Ser-Gly-Aib-Pro-Pro-Pro-Ser-NH2 (H[dS]QGTFTSDK([PEG2′-PEG2′-γGlu-C20 diacid])SKYLDERAAQDF[Iva]QWLLDGGPSSG[Aib]PPPS-NH2) [Compound 12]
- content of serum IL-6 (FIG. 7) [1]: clearly decreases
- content of serum MMP-12 (FIG. 7) [1]: clearly decreases
- collagenous fiber of colon tissues, Masson stained slice (FIG. 4A) [1]: noticeably decrease
- colon Ly-6g+ cells (neutrophile granulocyte infiltration), immunohistochemical staining (FIG. 6) [1]: clearly decrease
- colon mucous layer α-SMA protein expression, immunohistochemical staining (FIG. 5) [1]: clearly decreased
- colon tissue morphology, HE stained slice (FIG. 3) [1]: become intact
- blue staining area of colon tissues, area ratio of blue collagen fibers to colon tissue in Masson staining (FIG. 4B) [1]: noticeably decrease
- collagenous fiber of colon tissues, Masson stained slice (FIG. 11A) [2]: noticeably decrease
- colon mucous layer Fibronectin protein expression, immunohistochemical staining (FIG. 12) [2]: clearly decreased
- colon tissue morphology, HE stained slice (FIG. 10) [2]: become intact
- blue staining area of colon tissues, area ratio of blue collagen fibers to colon tissue in Masson staining (FIG. 11B) [2]: noticeably decrease
- content of serum IL-6 (FIG. 13) [2]: clearly decreases
- content of serum MMP-8 (FIG. 13) [2]: clearly decreases

Substance: His-(D-Ser)-Gln-Gly-Thr-Phe-Thr-Ser-Asp-Lys(PEG2-PEG2-γGlu-CO(CH2)18CO2H)-Ser-Lys-Tyr-Leu-Glu-Aib-Lys-Ala-Ala-Gln-Asp-Phe-Val-Glu-Trp-Leu-Lys-Ala-Gly-Gly-Pro-Ser-Ser-Gly-Ala-Pro-Pro-Pro-Ser-NH2 (H[dS]QGTFTSDK([PEG2′-PEG2′-γGlu-C20 diacid])SKYLE[Aib]KAAQDFVEWLKAGGPSSGAPPPS-NH2) [Compound 3]
- content of serum IL-6 (FIG. 7) [1]: clearly decreases
- content of serum MMP-12 (FIG. 7) [1]: clearly decreases
- collagenous fiber of colon tissues, Masson stained slice (FIG. 4A) [1]: noticeably decrease
- colon Ly-6g+ cells (neutrophile granulocyte infiltration), immunohistochemical staining (FIG. 6) [1]: clearly decrease
- colon mucous layer α-SMA protein expression, immunohistochemical staining (FIG. 5) [1]: clearly decreased
- colon tissue morphology, HE stained slice (FIG. 3) [1]: become intact
- blue staining area of colon tissues, area ratio of blue collagen fibers to colon tissue in Masson staining (FIG. 4B) [1]: noticeably decrease
- collagenous fiber of colon tissues, Masson stained slice (FIG. 11A) [2]: noticeably decrease
- colon mucous layer Fibronectin protein expression, immunohistochemical staining (FIG. 12) [2]: clearly decreased
- colon tissue morphology, HE stained slice (FIG. 10) [2]: become intact
- blue staining area of colon tissues, area ratio of blue collagen fibers to colon tissue in Masson staining (FIG. 11B) [2]: noticeably decrease
- content of serum IL-6 (FIG. 13) [2]: clearly decreases
- content of serum MMP-8 (FIG. 13) [2]: clearly decreases

Substance: His-Aib-Gln-Gly-Thr-Phe-Thr-Ser-Asp-Lys(PEG2-PEG2-CO(CH2)18CH3)-Ser-Lys-Tyr-Leu-Asp-Glu-Arg-Ala-Ala-Gln-Asp-Phe-Iva-Gln-Trp-Leu-Leu-Asp-Gly-Gly-Pro-Ser-Ser-Gly-Aib-Pro-Pro-Pro-Ser-NH2 (H[Aib]QGTFTSDK([PEG2′-PEG2′-Arachidoyl])SKYLDERAAQDF[Iva]QWLLDGGPSSG[Aib]PPPS-NH2; not fully specified; printed as His-Aib-Gln-Gly-Thr-Phe-Thr-Ser-Asp-Lys(PEG2-PEG2-CO(CH2)18CH3)-Ser-Lys-Tyr-Leu-Asp-Glu-Arg-Ala-Ala-Gln-Asp-Phe-Iva-Gln-Trp-Leu-Leu-Asp-Gly-Gly-Pro-Ser-Ser-Gly-Aib-Pro-Pro-Pro-Ser-NH2) [Compound 11]
- content of serum IL-6 (FIG. 7) [1]: clearly decreases
- content of serum MMP-12 (FIG. 7) [1]: clearly decreases
- collagenous fiber of colon tissues, Masson stained slice (FIG. 4A) [1]: noticeably decrease
- colon Ly-6g+ cells (neutrophile granulocyte infiltration), immunohistochemical staining (FIG. 6) [1]: clearly decrease
- colon mucous layer α-SMA protein expression, immunohistochemical staining (FIG. 5) [1]: clearly decreased
- colon tissue morphology, HE stained slice (FIG. 3) [1]: become intact
- blue staining area of colon tissues, area ratio of blue collagen fibers to colon tissue in Masson staining (FIG. 4B) [1]: noticeably decrease
- collagenous fiber of colon tissues, Masson stained slice (FIG. 11A) [2]: noticeably decrease
- colon mucous layer Fibronectin protein expression, immunohistochemical staining (FIG. 12) [2]: clearly decreased
- colon tissue morphology, HE stained slice (FIG. 10) [2]: become intact
- blue staining area of colon tissues, area ratio of blue collagen fibers to colon tissue in Masson staining (FIG. 11B) [2]: noticeably decrease
- content of serum IL-6 (FIG. 13) [2]: clearly decreases
- content of serum MMP-8 (FIG. 13) [2]: clearly decreases

Substance: His-Aib-Gln-Gly-Thr-Phe-Thr-Ser-Asp-Lys(PEG2-PEG2-γGlu-CO(CH2)18CO2H)-Ser-Lys-Tyr-Leu-Asp-Glu-Arg-Ala-Ala-Gln-Asp-Phe-Iva-Gln-Trp-Leu-Leu-Asp-Gly-Gly-Pro-Ser-Ser-Gly-Aib-Pro-Pro-Pro-Ser-NH2 (H[Aib]QGTFTSDK([PEG2′-PEG2′-γGlu-C20 diacid])SKYLDERAAQDF[Iva]QWLLDGGPSSG[Aib]PPPS-NH2) [Compound 8]
- content of serum IL-6 (FIG. 7) [1]: clearly decreases
- content of serum MMP-12 (FIG. 7) [1]: clearly decreases
- collagenous fiber of colon tissues, Masson stained slice (FIG. 4A) [1]: noticeably decrease
- colon Ly-6g+ cells (neutrophile granulocyte infiltration), immunohistochemical staining (FIG. 6) [1]: clearly decrease
- colon mucous layer α-SMA protein expression, immunohistochemical staining (FIG. 5) [1]: clearly decreased
- colon tissue morphology, HE stained slice (FIG. 3) [1]: become intact
- blue staining area of colon tissues, area ratio of blue collagen fibers to colon tissue in Masson staining (FIG. 4B) [1]: noticeably decrease
- collagenous fiber of colon tissues, Masson stained slice (FIG. 11A) [2]: noticeably decrease
- colon mucous layer Fibronectin protein expression, immunohistochemical staining (FIG. 12) [2]: clearly decreased
- colon tissue morphology, HE stained slice (FIG. 10) [2]: become intact
- blue staining area of colon tissues, area ratio of blue collagen fibers to colon tissue in Masson staining (FIG. 11B) [2]: noticeably decrease
- content of serum IL-6 (FIG. 13) [2]: clearly decreases
- content of serum MMP-8 (FIG. 13) [2]: clearly decreases
